Values of other authors, collected in article PMC3035168 (Chemistry & biology, 2010).
Residues, ends and D or L forms follow the SMILES beside them. *: point of attachment. Cbz = O=C(OCc1ccccc1)*; CH2F = FC*

Legend:
[1] = mouse, in vivo
[2] = system: HD transgenic mouse models; settings: ref Chen et al., 2000
striatal neurons = settings: ref Schulz et al., 1998

## C[C@H](NC(=O)C(=O)Nc1ccccc1C(C)(C)C)C(=O)N[C@@H](CC(=O)O)C(=O)COc1c(F)c(F)cc(F)c1F [IDN-6556]
[1]
  toxicity: nontoxic

## CN(C)c1ccc(O)c2c1C[C@H]1C[C@H]3[C@H](N(C)C)C(O)=C(C(N)=O)C(=O)[C@@]3(O)C(O)=C1C2=O [minocycline]
[2]; HD transgenic mouse models
  effect on cell death: delays cell death
[2]; through indirect means
  effect on caspase-1 and caspase-3 transcription: inhibits caspase-1 and caspase-3 transcriptional upregulation

## COC(=O)C[C@H](NC(=O)[C@H](C)NC(=O)[C@@H](NC(=O)OCc1ccccc1)C(C)C)C(=O)CF [zVAD-fmk] (Cbz-Val-Ala-Asp(OMe)-CH2F)
Striatal neurons
  protection against malonate-induced excitoxicity: protected striatal neurons
